In PMC9486808 (ACS Chemical Biology, 2022):
Entries after “also recorded” stand apart in the source; their conditions may differ. Read-outs that look alike come from different tables or passages of the source. Positions of bridges follow the written chain, without caps; N, C: chain ends. Non-standard residues stand in square brackets, D forms with d. Residues, ends and D or L forms follow the SMILES beside them.

Columns and labels:
H1 ectodomain [1] = molecular target: T1, H1 ectodomain (Influenza A virus, UniProt C3W5S1); assay: biochemical; format: binding, Influenza A virus A/California/04/2009 (H1N1)
H1 HA = H1 HA (Influenza A virus, UniProt C3W5S1); format: binding, Influenza A virus A/California/04/2009 (H1N1)
H1 ectodomain [2] = molecular target: T1, H1 ectodomain; assay: biochemical; format: binding, Influenza A virus A/California/04/2009 (H1N1); settings: read-out: Kd1
H1stem = format: binding, Influenza A virus A/Kentucky/UR06-0258/2007 (H1N1); settings: read-out: Kd1
H3 ectodomain = format: binding, Influenza A virus A/Fujian/411/2002 (H3N2); settings: for Kd: read-out: Kd1
[3] = tested on: H1N1pdm09 (A/Netherlands/602/2009); format: cell-based, Influenza A virus
[4] = tested on: H1N1pr8 (A/PR8/8/34/Mount Sinai); format: cell-based, Influenza A virus
[5] = tested on: H3N1 virus carrying H3 HA of A/Bilthoven/1761/76 (H3N2) in the H1N1pr8 background; format: cell-based, Influenza A virus
[6] = molecular target: H1 ectodomain of A/California/04/2009 (H1N1) (Influenza A virus, UniProt C3W5S1); format: binding, Influenza A virus A/California/04/2009 (H1N1)
[7] = tested on: H1N1pdm09 (A/Netherlands/602/2009); settings: for IC50: 16 h
[8] = tested on: H5N1 virus carrying H5 HA of A/duck/Hunan/795/2002 in the H1N1pr8 genetic background; settings: 16 h
in vitro = settings: HeLa R19 cells and MDCKI cells
[9] = tested on: H5N1 virus carrying H5 HA of A/duck/Hunan/795/2002 in the H1N1pr8 genetic background; format: cell-based, Influenza A virus
H1N1pdm09 = tested on: H1N1pdm09; parameters: species or system Influenza A virus
[10] = molecular target: full-length H1 of A/California/04/2009 (H1N1) (Influenza A virus, UniProt C3W5S1); format: cell-based, Influenza A virus A/California/04/2009 (H1N1); settings: pH 5

SMILES: CC(C)[C@@H]1NC(=O)[C@H](Cc2c[nH]c3ccccc23)NC(=O)[C@H](CCCNC(=N)N)NC(=O)[C@H](Cc2ccc(O)cc2)NC(=O)CSC[C@@H](C(=O)NCC(N)=O)NC(=O)[C@H](C(C)C)NC(=O)[C@H](C(C)C)NC(=O)[C@H](Cc2ccccc2)NC(=O)[C@H](Cc2ccc(O)cc2)NC(=O)[C@@H]2CCCN2C(=O)[C@H](CCC(=O)O)NC(=O)[C@H](CO)NC(=O)[C@H](Cc2ccccc2)NC(=O)[C@H](Cc2ccccc2)NC(=O)[C@H](CO)NC(=O)[C@H]([C@@H](C)O)NC(=O)[C@H](Cc2c[nH]c3ccccc23)NC1=O [L4] ({CH2CO}-YRWVWTSFFSEPYFVVCG-NH2; thioether N-17)
- Kd (H1 ectodomain [1]): ≤ 1 nM
- ΔTm (°C), purified peptide (H1 HA): 3.4 °C
- Kd (H1 ectodomain [2]): 20.8 ± 1.4 nM
- Kd (H1stem): 2.6 ± 0.1 nM
- Peptide binding by SPR (in words) (H3 ectodomain): no binding was observed
- Kd (H3 ectodomain): > 50 nM
- Inhibition of infection (infected cells relative to untreated control) [3]: strongly inhibited infection
- Inhibition of infection (infected cells relative to untreated control) [4]: strongly inhibited infection
- Inhibition of infection (infected cells relative to untreated control) [5]: fell short of inhibiting
- Binding region in the HA stem (HDX-MS) [6]: aa 369–387
- Inhibition of infection at a single concentration [7]: strong inhibition of infection
- IC50 [7]: 104 ± 10.3 nM
- IC50 [8]: 234 ± 66 nM
- CC50 at 72 h (in vitro): > 5000 nM

SMILES: CC[C@H](C)[C@@H]1NC(=O)[C@H](CCCCN)NC(=O)[C@H](CO)NC(=O)[C@H](Cc2c[nH]c3ccccc23)NC(=O)[C@H](Cc2ccc(O)cc2)NC(=O)[C@H]([C@@H](C)CC)NC(=O)[C@H](CCCCN)NC(=O)[C@H](CC(C)C)NC(=O)[C@@H](Cc2ccc(O)cc2)NC(=O)CSC[C@@H](C(=O)NCC(N)=O)NC(=O)[C@H](Cc2c[nH]c3ccccc23)NC(=O)[C@H](CCC(=O)O)NC(=O)[C@H](CO)NC(=O)[C@H](C(C)C)NC(=O)[C@H](CC(C)C)NC(=O)CNC(=O)[C@H](Cc2c[nH]cn2)NC1=O [S3] ({CH2CO}-[dY]LKIYWSKIHGLVSEWCG-NH2; thioether N-17)
- Kd (H1 ectodomain [1]): ≤ 1 nM
- ΔTm (°C), crude peptide (H1 HA): 3.8 °C
- ΔTm (°C), purified peptide (H1 HA): 4.2 °C
- Kd (H1 ectodomain [2]): 16.8 ± 0.6 nM
- Kd (H1stem): 37.2 ± 18.8 nM
- Peptide binding by SPR (in words) (H3 ectodomain): no binding was observed
- Kd (H3 ectodomain): > 50 nM
- Inhibition of infection (infected cells relative to untreated control) [3]: strongly inhibited infection
- Inhibition of infection (infected cells relative to untreated control) [4]: strongly inhibited infection
- Inhibition of infection (infected cells relative to untreated control) [5]: fell short of inhibiting
- Binding region in the HA stem (HDX-MS) [6]: aa 369–387
- Inhibition of infection at a single concentration [7]: strong inhibition of infection
- IC50 [7]: 47.5 ± 7.1 nM
- IC50 [8]: 17.5 ± 1.7 nM
- CC50 at 72 h (in vitro): > 5000 nM

SMILES: CC(C)C[C@@H]1NC(=O)[C@H](C(C)C)NC(=O)[C@@H](Cc2ccc(O)cc2)NC(=O)CSC[C@@H](C(=O)NCC(N)=O)NC(=O)[C@H](C(C)C)NC(=O)[C@H](Cc2c[nH]c3ccccc23)NC(=O)[C@H](Cc2c[nH]cn2)NC(=O)[C@H]([C@@H](C)O)NC(=O)[C@H](C)NC(=O)[C@H](CC(C)C)NC(=O)[C@H]([C@@H](C)O)NC(=O)CNC(=O)[C@H](Cc2c[nH]cn2)NC(=O)[C@H](CC(=O)O)NC(=O)[C@H](Cc2c[nH]c3ccccc23)NC(=O)[C@H](CCCNC(=N)N)NC(=O)[C@H](Cc2ccccc2)NC1=O [S5] ({CH2CO}-[dY]VLFRWDHGTLATHWVCG-NH2; thioether N-17)
- Kd (H1 ectodomain [1]): ≤ 1 nM
- ΔTm (°C), crude peptide (H1 HA): 4.8 °C
- ΔTm (°C), purified peptide (H1 HA): 7.8 °C
- Kd (H1 ectodomain [2]): 8.6 ± 1.1 nM
- Kd (H1stem): 11.3 ± 2.5 nM
- Peptide binding by SPR (in words) (H3 ectodomain): no binding was observed
- Kd (H3 ectodomain): > 50 nM
- Inhibition of infection (infected cells relative to untreated control) [3]: strongly inhibited infection
- Inhibition of infection (infected cells relative to untreated control) [4]: strongly inhibited infection
- Inhibition of infection (infected cells relative to untreated control) [9]: cross-neutralization was observed
- Inhibition of infection (infected cells relative to untreated control) [5]: fell short of inhibiting
- Binding region in the HA stem (HDX-MS) [6]: aa 369–387
- Interference of the peptide itself with hemagglutination (H1N1pdm09): does not interfere with hemagglutination
- Loss of hemagglutination after pH 5 incubation (H1N1pdm09; pH 5): prevented by S5
- Syncytia formation (cell-cell fusion) [10]: greatly reduced; also recorded: inhibits fusion between H1 expressing cells
- Inhibition of infection at a single concentration [7]: strong inhibition of infection
- Neutralizing activity in the presence of serum proteins [7]: unaffected by the addition of serum proteins
- CC50 at 72 h (in vitro): > 5000 nM
